Reference: PubChem BioAssay AID2768 (The Scripps Research Institute Molecular Screening Center, 2010)

Molecular target: metallo-beta-lactamase IMP-1 (Pseudomonas aeruginosa) (UniProt Q79MP6)
Test: inhibition of IMP-1 substrate hydrolysis – biochemical, epi-absorbance, dose response, late-stage follow-up (AID 2768)
Details: purified IMP-1, absorbance substrate hydrolysis

Chain of metallo-beta-lactamase IMP-1 (Pseudomonas aeruginosa) (Q79MP6 1-246): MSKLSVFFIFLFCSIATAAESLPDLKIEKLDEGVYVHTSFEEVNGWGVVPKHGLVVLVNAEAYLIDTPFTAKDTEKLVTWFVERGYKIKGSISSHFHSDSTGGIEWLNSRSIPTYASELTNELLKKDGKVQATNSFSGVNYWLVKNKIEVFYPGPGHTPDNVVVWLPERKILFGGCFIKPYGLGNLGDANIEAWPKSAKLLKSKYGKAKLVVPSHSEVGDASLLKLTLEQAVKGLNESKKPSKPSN

Compound `O=C(O)c1ccc[c]([Hg+])c1` has an IC50 of 1.33 µM.
`O=C(O)c1cc[c]([Hg][Cl])cc1` gave an IC50 of 8.7 µM.
With `Cc1cc[c]([Hg+])cc1` the IC50 was 1.81 µM.
For `CC(=O)Nc1cc[c]([Hg+])cc1`, the IC50 was 3.74 µM.
In the case of `COc1cccc[c]1[Hg+]`, the IC50 is reported as 2.33 µM.
With `[Hg+][c]1ccccc1` the IC50 was 1.51 µM.
